# Patent US7781591B2, “Substituted 3-cyanopyridines as protein kinase inhibitors” (Wyeth LLC, priority 2006, dated 2010)
# Molecular target: T1, human PKCθ full length enzyme (Homo sapiens, UniProt Q04759)
# T1 construct: human PKCθ full length enzyme (Panvera Cat# P2996); purchased Panvera P2996
# Assay: PKCθ IMAP assay (fluorescence polarization)
# Assay type: biochemical
# Conditions: human PKCθ full length enzyme, IMAP; average value; read-out: IC50 PKCθ IMAP
# Method: The reaction buffer was prepared by diluting the 5× stock reaction buffer and adding DTT to obtain a concentration of 3.0 mM. […] The final concentration of compound was 2× and 10% DMSO. DMSO was added to the rest of the master mix to increase the concentration to 10%. 10 μl of the master mix containing 10% DMSO was added to the rest of the wells on the plate except the 2nd column. 20 μl was transferred from the first column to the 2nd column. The compounds were serially diluted in 2:1 ratio starting from the 2nd column. A 2× ([…]) PKCθ solution was made in the reaction buffer. 10 μl of the PKCθ solution was added to every well to achieve these final concentrations: PKCθ—1 nM; ATP—6 μM; peptide—100 nM; DMSO—5%. Samples were incubated for 25 minutes at room temperature. The binding reagent was prepared by diluting the beads in 1× binding buffer to 800:1. 50 μl of the binding reagent was added to every well and incubated for 20 minutes. FP was measured using Envision2100 (PerkinElmer Life Sciences). Wells with no ATPs and wells with no enzymes were used as controls.
# T1 sequence (Q04759 whole entry): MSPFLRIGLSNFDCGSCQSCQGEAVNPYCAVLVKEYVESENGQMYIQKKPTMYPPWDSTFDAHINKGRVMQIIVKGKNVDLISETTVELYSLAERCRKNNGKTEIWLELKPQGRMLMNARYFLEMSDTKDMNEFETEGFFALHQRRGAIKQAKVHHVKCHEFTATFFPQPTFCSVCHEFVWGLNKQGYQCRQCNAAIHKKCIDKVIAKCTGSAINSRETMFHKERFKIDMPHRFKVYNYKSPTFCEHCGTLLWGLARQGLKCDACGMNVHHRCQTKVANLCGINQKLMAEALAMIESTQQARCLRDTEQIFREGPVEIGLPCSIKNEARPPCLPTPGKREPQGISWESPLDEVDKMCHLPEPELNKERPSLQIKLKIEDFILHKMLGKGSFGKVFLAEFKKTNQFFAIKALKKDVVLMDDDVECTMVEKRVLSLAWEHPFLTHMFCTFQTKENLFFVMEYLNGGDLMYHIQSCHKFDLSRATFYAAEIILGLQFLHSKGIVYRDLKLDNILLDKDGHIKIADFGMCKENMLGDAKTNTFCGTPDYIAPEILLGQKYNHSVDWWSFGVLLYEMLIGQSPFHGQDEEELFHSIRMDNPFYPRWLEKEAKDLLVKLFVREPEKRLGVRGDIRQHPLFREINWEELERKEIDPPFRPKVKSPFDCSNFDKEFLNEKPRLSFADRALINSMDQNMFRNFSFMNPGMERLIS
row,IC50,Molecule
1,7 nM,"Cc1c(Nc2c(C#N)cncc2-c2cccc(CN3CCCC3)c2)ccc2[nH]ccc12 [Compound 455, 4-[(4-methyl-1H-indol-5-yl)amino]-5-[3-(pyrrolidin-1-ylmethyl)phenyl]nicotinonitrile]"
2,15 nM,"Cc1c(Nc2c(C#N)cncc2-c2ccc(OCCN3CCN(CCN(C)C)CC3)cc2)ccc2[nH]ccc12 [Compound 428, 5-[4-(2-{4-[2-(dimethylamino)ethyl]piperazin-1-yl}ethoxy)phenyl]-4-[(4-methyl-1H-indol-5-yl)amino]nicotinonitrile]"
3,16 nM,"Cc1c(Nc2c(C#N)cncc2-c2ccc(N)cc2)ccc2[nH]ccc12 [Compound 571, 5-(4-aminophenyl)-4-[(4-methyl-1H-indol-5-yl)amino]nicotinonitrile]"
4,226 nM,"COc1ccc(-c2cncc(C#N)c2Nc2ccc3c(ccn3C)c2C)cc1OC [Compound 555, 5-(3,4-dimethoxyphenyl)-4-[(1,4-dimethyl-1H-indol-5-yl)amino]nicotinonitrile]"
5,78 nM,"Cc1c(Nc2c(C#N)cncc2-c2ccc(N3CCCCC3)nc2)ccc2[nH]ccc12 [Compound 508, 4-[(4-methyl-1H-indol-5-yl)amino]-6′-piperidin-1-yl-3,3′-bipyridine-5-carbonitrile]"
6,120 nM,"Cc1c(Nc2c(C#N)cncc2-c2ccc3c(c2)sc2ccccc23)ccc2[nH]ccc12 [Compound 593, 5-(dibenzo[b,d]thiophen-3-yl)-4-(4-methyl-1H-indol-5-ylamino)nicotinonitrile]"
7,6 nM,"COc1ccc(-c2cncc(C#N)c2Nc2ccc3[nH]ccc3c2C)cc1 [Compound 559, 5-(4-methoxyphenyl)-4-[(4-methyl-1H-indol-5-yl)amino]nicotinonitrile]"
8,6 nM,"Cc1c(Nc2c(C#N)cncc2-c2ccc(CN3CCN(C)CC3)cc2F)ccc2[nH]ccc12 [Compound 459, 5-{2-fluoro-4-[(4-methylpiperazin-1-yl)methyl]phenyl}-4-[(4-methyl-1H-indol-5-yl)amino]nicotinonitrile]"
9,8 nM,"Cc1c(Nc2c(C#N)cncc2-c2cscn2)ccc2[nH]ccc12 [Compound 543, 4-[(4-methyl-1H-indol-5-yl)amino]-5-(1,3-thiazol-4-yl)nicotinonitrile]"
10,5 nM,"CCN(CC)Cc1ccc2oc(-c3cncc(C#N)c3Nc3cc4cc[nH]c4cc3C)cc2c1 [Compound 500, 5-{5-[(diethylamino)methyl]-1-benzofuran-2-yl}-4-[(6-methyl-1H-indol-5-yl)amino]nicotinonitrile]"
11,261 nM,"Cc1c(Nc2c(C#N)cncc2-c2cncnc2)ccc2[nH]ccc12 [Compound 509, 4-[(4-methyl-1H-indol-5-yl)amino]-5-pyrimidin-5-ylnicotinonitrile]"
12,6.9 nM,"Cc1c(Nc2c(C#N)cncc2-c2cccc3ncccc23)ccc2[nH]ccc12 [Compound 592, 4-(4-methyl-1H-indol-5-ylamino)-5-(quinolin-5-yl)nicotinonitrile]"

# Second part, the molecule before the results:
row,Molecule,IC50
1,"Cc1c(Nc2c(C#N)cncc2-c2cccc(-c3ccc(C=O)s3)c2)ccc2[nH]ccc12 [Compound 306, 5-[3-(5-formyl-2-thienyl)phenyl]-4-[(4-methyl-1H-indol-5-yl)amino]nicotinonitrile]",60 nM
2,"Cc1c(Nc2c(C#N)cncc2-c2cc3cc(CNCc4ccccn4)ccc3o2)ccc2[nH]ccc12 [Compound 398, 4-[(4-methyl-1H-indol-5-yl)amino]-5-(5-{[(pyridin-2-ylmethyl)amino]methyl}-1-benzofuran-2-yl)nicotinonitrile]",3 nM
3,"COCCNC(=O)c1ccc(-c2cccc(-c3cncc(C#N)c3Nc3ccc4[nH]ccc4c3)c2)cc1 [Compound 200, 3′-[5-cyano-4-(1H-indol-5-ylamino)pyridin-3-yl]-N-(2-methoxyethyl)biphenyl-4-carboxamide]",190 nM
4,"Cc1c(Nc2c(C#N)cncc2-c2cc3cc(CN(C)CC(O)CO)ccc3o2)ccc2[nH]ccc12 (centres unmarked) [Compound 386, 5-(5-{[(2,3-dihydroxypropyl)(methyl)amino]methyl}-1-benzofuran-2-yl)-4-[(4-methyl-1H-indol-5-yl)amino]nicotinonitrile]",5 nM
5,"N#Cc1cncc(-c2cc3ccccc3[nH]2)c1Nc1cccc2[nH]ccc12 [Compound 325, 5-(1H-indol-2-yl)-4-(1H-indol-4-ylamino)nicotinonitrile]",60 nM
6,"N#Cc1cncc(-c2cccc(-c3ccc(C(=O)NCc4ccccn4)cc3)c2)c1Nc1ccc2[nH]ccc2c1 [Compound 212, 3′-[5-cyano-4-(1H-indol-5-ylamino)pyridin-3-yl]-N-(pyridin-2-ylmethyl)biphenyl-4-carboxamide]",590 nM
7,"COc1ccc(-c2cncc(C#N)c2Nc2ccc3[nH]ccc3c2)cc1OCCCl [Compound 178, 5-[3-(2-chloroethoxy)-4-methoxyphenyl]-4-(1H-indol-5-ylamino)nicotinonitrile]",110 nM
8,"N#Cc1cncc(-c2cccc(-c3cccs3)c2)c1Nc1ccc2[nH]ccc2c1 [Compound 136, 4-(1H-indol-5-ylamino)-5-[3-(2-thienyl)phenyl]nicotinonitrile]",130 nM
9,"N#Cc1cncc(-c2cc3cc(CNCC4CC4)ccc3s2)c1Nc1cccc2[nH]ccc12 [Compound 279, 5-(5-{[(cyclopropylmethyl)amino]methyl}-1-benzothien-2-yl)-4-(1H-indol-4-ylamino)nicotinonitrile]",1 nM
10,"CN(C)c1ccc(-c2cncc(C#N)c2Nc2ccc3cn[nH]c3c2)cc1 [Compound 293, 5-[4-(dimethylamino)phenyl]-4-(1H-indazol-6-ylamino)nicotinonitrile]",36000 nM
11,"N#Cc1cncc(-c2cccc(-c3ccc(N)cc3)c2)c1Nc1ccc2[nH]ccc2c1 [Compound 119, 5-(4′-aminobiphenyl-3-yl)-4-(1H-indol-5-ylamino)nicotinonitrile]",300 nM
12,5-{5-[(cyclohexylamino)methyl]-1-benzofuran-2-yl}-4-[(4-methyl-1H-indol-5-yl)amino]nicotinonitrile [Compound 387],1 nM
13,"COCCNC(=O)c1ccc(-c2cncc(C#N)c2Nc2cccc3[nH]ccc23)cc1 [Compound 330, 4-[5-cyano-4-(1H-indol-4-ylamino)pyridin-3-yl]-N-(2-methoxyethyl)benzamide]",130 nM
14,"Cc1c(Nc2c(C#N)cncc2-c2cc3cc(CNCC(O)CO)ccc3o2)ccc2[nH]ccc12 (centres unmarked) [Compound 385, 5-(5-{[(2,3-dihydroxypropyl)amino]methyl}-1-benzofuran-2-yl)-4-[(4-methyl-1H-indol-5-yl)amino]nicotinonitrile]",2 nM
15,"N#Cc1cncc(-c2cc3ccccc3o2)c1Nc1ccc2[nH]ncc2c1 [Compound 373, 5-(1-benzofuran-2-yl)-4-(1H-indazol-5-ylamino)nicotinonitrile]",1000 nM
16,"N#Cc1cncc(-c2cc3cc(C=O)ccc3s2)c1Nc1cccc2[nH]ccc12 [Compound 223, 5-(5-formyl-1-benzothien-2-yl)-4-(1H-indol-4-ylamino)nicotinonitrile]",6 nM
17,"COc1cccc(-c2cncc(C#N)c2Nc2ccc3[nH]ncc3c2)c1 [Compound 295, 4-(1H-indazol-5-ylamino)-5-(3-methoxyphenyl)nicotinonitrile]",2950 nM
18,"COc1ccc(-c2cncc(C#N)c2Nc2cccc3[nH]ccc23)cc1OCCNCCCN1CCCC1=O [Compound 338, 4-(1H-indol-4-ylamino)-5-[4-methoxy-3-(2-{[3-(2-oxopyrrolidin-1-yl)propyl]amino}ethoxy)phenyl]nicotinonitrile]",8 nM
19,"Cc1csc(-c2cccc(-c3cncc(C#N)c3Nc3ccc4[nH]ccc4c3)c2)c1 [Compound 139, 4-(1H-indol-5-ylamino)-5-[3-(4-methyl-2-thienyl)phenyl]nicotinonitrile]",250 nM
20,"COc1ccc(-c2cncc(C#N)c2Nc2ccc3[nH]ccc3c2C)cc1OCCN1CCN(C)CC1 [Compound 343, 5-{4-methoxy-3-[2-(4-methylpiperazin-1-yl)ethoxy]phenyl}-4-[(4-methyl-1H-indol-5-yl)amino]nicotinonitrile]",10 nM
21,"CN(C)S(=O)(=O)c1ccc(-c2cncc(C#N)c2Nc2cccc3[nH]ccc23)cc1 [Compound 326, 4-[5-cyano-4-(1H-indol-4-ylamino)pyridin-3-yl]-N,N-dimethylbenzenesulfonamide]",190 nM
22,4-[(4-methyl-1H-indol-5-yl)amino]-5-[5-(pyrrolidin-1-ylmethyl)-2-furyl]nicotinonitrile [Compound 410],35 nM
23,"CCCCN(CCCC)Cc1ccc(-c2cncc(C#N)c2Nc2ccc3[nH]ccc3c2C)o1 [Compound 407, 5-{5-[(dibutylamino)methyl]-2-furyl}-4-[(4-methyl-1H-indol-5-yl)amino]nicotinonitrile]",20 nM
24,5-(1-benzofuran-3-yl)-4-(1H-indol-4-ylamino)nicotinonitrile [Compound 352],20 nM
25,"COc1cc(-c2cncc(C#N)c2Nc2ccc3[nH]ccc3c2C)ccc1OCCN1CCN(C)CC1 [Compound 377, 5-{3-methoxy-4-[2-(4-methylpiperazin-1-yl)ethoxy]phenyl}-4-[(4-methyl-1H-indol-5-yl)amino]nicotinonitrile]",10 nM
26,"COc1ccc(-c2cncc(C#N)c2Nc2ccc3[nH]ccc3c2)cc1OCCN1CCCCC1 [Compound 235, 4-(1H-indol-5-ylamino)-5-[4-methoxy-3-(2-piperidin-1-ylethoxy)phenyl]nicotinonitrile]",240 nM
